Source: ChEMBL document CHEMBL4138123, “Design, synthesis and biological evaluation of novel pyrazolochalcones as potential modulators of PI3K/Akt/mTOR pathway and inducers of apoptosis in breast cancer cells” (Eur J Med Chem, 2017)

How the values were obtained:
Format in all cases: functional
MCF7 = assay: Cytotoxicity against human MCF7 cells assessed as cell growth at 0.01 uM after 48 hrs by sulforhodamine B assay relative to control; conditions: MCF7, 48 h, read-out: Activity
HCT-15 [1] = assay: Cytotoxicity against human HCT15 cells assessed as cell growth at 0.1 uM after 48 hrs by sulforhodamine B assay relative to control; conditions: HCT-15, 48 h, read-out: Activity
SK-MEL-28 [2] = assay: Cytotoxicity against human SK-MEL-28 cells assessed as cell growth at 0.1 uM after 48 hrs by sulforhodamine B assay relative to control; conditions: SK-MEL-28, 48 h, read-out: Activity
NCI-H460 [3] = assay: Cytotoxicity against human NCI-H460 cells assessed as cell growth at 0.01 uM after 48 hrs by sulforhodamine B assay relative to control; conditions: NCI-H460, 48 h, read-out: Activity
SR = assay: Cytotoxicity against human SR cells assessed as cell growth at 0.1 uM after 48 hrs by sulforhodamine B assay relative to control; conditions: read-out: Activity
UO-31 = assay: Cytotoxicity against human UO31 cells assessed as cell growth at 0.1 uM after 48 hrs by sulforhodamine B assay relative to control; conditions: UO-31, 48 h, read-out: Activity
RXF 393 = assay: Cytotoxicity against human RXF393 cells assessed as growth inhibition after 48 hrs by sulforhodamine B assay; conditions: RXF 393, 48 h
NCI-H322M [4] = assay: Cytotoxicity against human NCI-H322M cells assessed as cell growth at 0.1 uM after 48 hrs by sulforhodamine B assay relative to control; conditions: read-out: Activity
A498 [5] = assay: Cytotoxicity against human A498 cells assessed as cell growth at 10 uM after 48 hrs by sulforhodamine B assay relative to control; conditions: A498, 48 h, read-out: Activity
HL-60(TB) = assay: Cytotoxicity against human HL-60(TB) cells assessed as cell growth at 10 uM after 48 hrs by sulforhodamine B assay relative to control; conditions: HL-60, 48 h, read-out: Activity
NCI-H460 [6] = assay: Cytotoxicity against human NCI-H460 cells assessed as cell growth at 100 uM after 48 hrs by sulforhodamine B assay relative to control; conditions: NCI-H460, 48 h, read-out: Activity
HT-29 = assay: Cytotoxicity against human HT-29 cells assessed as cell growth at 0.1 uM after 48 hrs by sulforhodamine B assay relative to control; conditions: HT-29, 48 h, read-out: Activity
UACC-257 [7] = assay: Cytotoxicity against human UACC257 cells assessed as cell growth at 100 uM after 48 hrs by sulforhodamine B assay relative to control; conditions: UACC-257, 48 h, read-out: Activity
UACC-257 [8] = assay: Cytotoxicity against human UACC257 cells assessed as cell growth at 10 uM after 48 hrs by sulforhodamine B assay relative to control; conditions: UACC-257, 48 h, read-out: Activity
SK-MEL-5 = assay: Cytotoxicity against human SK-MEL-5 cells assessed as cell growth at 10 uM after 48 hrs by sulforhodamine B assay relative to control; conditions: SK-MEL-5, 48 h, read-out: Activity
SK-MEL-28 [9] = assay: Cytotoxicity against human SK-MEL-28 cells assessed as cell growth at 10 uM after 48 hrs by sulforhodamine B assay relative to control; conditions: SK-MEL-28, 48 h, read-out: Activity
HOP-62 [10] = assay: Cytotoxicity against human HOP62 cells assessed as cell growth at 100 uM after 48 hrs by sulforhodamine B assay relative to control; conditions: HOP-62, 48 h, read-out: Activity
COLO 205 = assay: Cytotoxicity against human COLO205 cells assessed as growth inhibition after 48 hrs by sulforhodamine B assay; conditions: COLO 205, 48 h
NCI-H322M [11] = assay: Cytotoxicity against human NCI-H322M cells assessed as cell growth at 100 uM after 48 hrs by sulforhodamine B assay relative to control; conditions: read-out: Activity
OVCAR-5 = assay: Cytotoxicity against human OVCAR5 cells assessed as cell growth at 0.01 uM after 48 hrs by sulforhodamine B assay relative to control; conditions: OVCAR-5, 48 h, read-out: Activity
A498 [12] = assay: Cytotoxicity against human A498 cells assessed as cell growth at 1 uM after 48 hrs by sulforhodamine B assay relative to control; conditions: A498, 48 h, read-out: Activity
MDA-MB-468 = assay: Cytotoxicity against human MDA-MB-468 cells assessed as growth inhibition after 48 hrs by sulforhodamine B assay; conditions: MDA-MB-468, 48 h
HCT-15 [13] = assay: Cytotoxicity against human HCT15 cells assessed as cell growth at 10 uM after 48 hrs by sulforhodamine B assay relative to control; conditions: HCT-15, 48 h, read-out: Activity
UACC-62 = assay: Cytotoxicity against human UACC62 cells assessed as cell growth at 0.01 uM after 48 hrs by sulforhodamine B assay relative to control; conditions: UACC-62, 48 h, read-out: Activity
SN12C = assay: Cytotoxicity against human SN12C cells assessed as cell growth at 1 uM after 48 hrs by sulforhodamine B assay relative to control; conditions: read-out: Activity
Hs-578T = assay: Cytotoxicity against human Hs 578T cells assessed as cell growth at 1 uM after 48 hrs by sulforhodamine B assay relative to control; conditions: read-out: Activity
TK-10 = assay: Cytotoxicity against human TK10 cells assessed as cell growth at 10 uM after 48 hrs by sulforhodamine B assay relative to control; conditions: TK-10, 48 h, read-out: Activity
DU-145 = assay: Cytotoxicity against human DU145 cells assessed as cell growth at 10 uM after 48 hrs by sulforhodamine B assay relative to control; conditions: DU-145, 48 h, read-out: Activity
RPMI-8226 = assay: Cytotoxicity against human RPMI8226 cells assessed as cell growth at 10 uM after 48 hrs by sulforhodamine B assay relative to control; conditions: RPMI-8226, 48 h, read-out: Activity
SF-268 = assay: Cytotoxicity against human SF268 cells assessed as cell growth at 0.01 uM after 48 hrs by sulforhodamine B assay relative to control; conditions: SF-268, 48 h, read-out: Activity
PC-3 = assay: Cytotoxicity against human PC3 cells assessed as cell growth at 1 uM after 48 hrs by sulforhodamine B assay relative to control; conditions: PC-3, 48 h, read-out: Activity
KM12 = assay: Cytotoxicity against human KM12 cells assessed as cell growth at 0.01 uM after 48 hrs by sulforhodamine B assay relative to control; conditions: KM12, 48 h, read-out: Activity
NCI-H522 = assay: Cytotoxicity against human NCI-H522 cells assessed as growth inhibition after 48 hrs by sulforhodamine B assay; conditions: NCI-H522, 48 h
HOP-62 [14] = assay: Cytotoxicity against human HOP62 cells assessed as cell growth at 0.01 uM after 48 hrs by sulforhodamine B assay relative to control; conditions: HOP-62, 48 h, read-out: Activity
MOLT-4 = assay: Cytotoxicity against human MOLT4 cells assessed as cell growth at 100 uM after 48 hrs by sulforhodamine B assay relative to control; conditions: MOLT-4, 48 h, read-out: Activity
HCT-116 = assay: Cytotoxicity against human HCT116 cells assessed as growth inhibition after 48 hrs by sulforhodamine B assay; conditions: HCT-116, 48 h

## COc1ccc(C(=O)/C=C/c2cc(-c3cc(OC)c(OC)c(OC)c3)n[nH]2)cc1OC
MCF7
  growth at 0.01 µM: 89%
HCT-15 [1]
  growth at 0.1 µM: 98%
SK-MEL-28 [2]
  growth at 0.1 µM: 104%
NCI-H460 [3]
  growth at 0.01 µM: 103%
SR
  growth at 0.1 µM: 81%
UO-31
  growth at 0.1 µM: 87%
RXF 393
  LC50 (concentration killing 50% of cells): 5.23 µM
  TGI: 2.66 µM
NCI-H322M [4]
  growth at 0.1 µM: 101%
A498 [5]
  growth at 10 µM: -87%
HL-60(TB)
  growth at 10 µM: -41%
NCI-H460 [6]
  growth at 100 µM: -65%
HT-29
  growth at 0.1 µM: 105%
UACC-257 [7]
  growth at 100 µM: -97%
UACC-257 [8]
  growth at 10 µM: -98%
SK-MEL-5
  growth at 10 µM: -98%
SK-MEL-28 [9]
  growth at 10 µM: -88%
HOP-62 [10]
  growth at 100 µM: -98%
COLO 205
  LC50: 5.92 µM
  TGI: 3.21 µM
NCI-H322M [11]
  growth at 100 µM: -90%
OVCAR-5
  growth at 0.01 µM: 101%
A498 [12]
  growth at 1 µM: 78%
MDA-MB-468
  GI50: 0.75 µM
  LC50: 5.21 µM
  TGI: 2.18 µM
HCT-15 [13]
  growth at 10 µM: -78%
UACC-62
  growth at 0.01 µM: 98%
SN12C
  growth at 1 µM: 80%
Hs-578T
  growth at 1 µM: 91%
TK-10
  growth at 10 µM: 100%
DU-145
  growth at 10 µM: -89%
RPMI-8226
  growth at 10 µM: -50%
SF-268
  growth at 0.01 µM: 93%
PC-3
  growth at 1 µM: 71%
KM12
  growth at 0.01 µM: 97%
NCI-H522
  LC50: 0.825 µM
  TGI: 0.39 µM
HOP-62 [14]
  growth at 0.01 µM: 101%
MOLT-4
  growth at 100 µM: -23%
HCT-116
  TGI: 2.63 µM

## COc1ccc(-c2cc(/C=C/C(=O)c3cc(OC)c(OC)c(OC)c3)[nH]n2)cc1OC
MCF7
  growth at 0.01 µM: 92%
HCT-15 [1]
  growth at 0.1 µM: 90%
SK-MEL-28 [2]
  growth at 0.1 µM: 91%
NCI-H460 [3]
  growth at 0.01 µM: 100%
SR
  growth at 0.1 µM: 73%
UO-31
  growth at 0.1 µM: 82%
RXF 393
  GI50: 1.53 µM
  LC50 (concentration killing 50% of cells): 6.51 µM
  TGI: 3.16 µM
NCI-H322M [4]
  growth at 0.1 µM: 88%
A498 [5]
  growth at 10 µM: -28%
HL-60(TB)
  growth at 10 µM: 2%
NCI-H460 [6]
  growth at 100 µM: -60%
HT-29
  growth at 0.1 µM: 99%
UACC-257 [7]
  growth at 100 µM: -94%
UACC-257 [8]
  growth at 10 µM: -64%
SK-MEL-5
  growth at 10 µM: -99%
SK-MEL-28 [9]
  growth at 10 µM: -49%
HOP-62 [10]
  growth at 100 µM: -84%
COLO 205
  GI50: 1.75 µM
  LC50: 7.28 µM
  TGI: 3.57 µM
NCI-H322M [11]
  growth at 100 µM: -91%
OVCAR-5
  growth at 0.01 µM: 102%
A498 [12]
  growth at 1 µM: 65%
MDA-MB-468
  GI50: 1.33 µM
  LC50: 8.03 µM
  TGI: 3.27 µM
HCT-15 [13]
  growth at 10 µM: -41%
UACC-62
  growth at 0.01 µM: 96%
SN12C
  growth at 1 µM: 87%
Hs-578T
  growth at 1 µM: 86%
TK-10
  growth at 10 µM: 7%
DU-145
  growth at 10 µM: -55%
RPMI-8226
  growth at 10 µM: -38%
SF-268
  growth at 0.01 µM: 99%
PC-3
  growth at 1 µM: 71%
KM12
  growth at 0.01 µM: 99%
NCI-H522
  GI50: 1.33 µM
  LC50: 5.39 µM
  TGI: 2.68 µM
HOP-62 [14]
  growth at 0.01 µM: 92%
MOLT-4
  growth at 100 µM: -15%
HCT-116
  GI50: 0.42 µM
  LC50: 5.18 µM
  TGI: 1.79 µM
